Tests used:
[1] = test system: BaF3-FL KIT D816V or BaF3-FL KIT V560G/D816V cell line; experiment: Cell-based assays of c-Kit mutant kinase activity (cell proliferation, ATPlite); details: at least one of the c-kit cell assays of Example 7
Method: The c-Kit mutant D816V inhibitors were assessed using an engineered BaF3-FL KIT D816V or BaF3-FL KIT V560G/D816V cell line. The BaF3-FL KIT D816V cell lines were created by introduction of KIT mutant (D816V) full length constructs that render the cells dependent on the introduced kinase for growth. Inhibitors of c-Kit mutant D816V kinase reduce or eliminate the mediated c-kit mutant D816V kinase activation, resulting in reduced cell proliferation of the BaF3-FL Kit mutant D816V cells. This inhibition is measured by the effect of compound concentration on cell growth to assess IC50 values. BaF3-FL KIT D816V cells were seeded at 1×10^4 cells per well of a 96 well cell culture plate in 50 μl of cell culture medium of RPMI Medium 1× (Invitrogen #11875-093) supplemented with 10% FBS (Invitrogen #10438), 1% Non Essential Amino Acids (Invitrogen #11140), 1% Penicillin Streptomycin (Invitrogen #15140), 1% L-Glutamine (Invitrogen #25030-081). Compounds were dissolved in DMSO at a concentration of 5 mM and were serially diluted 1:3 for a total of eight points and added to the cells to a final maximum concentration of 10 μM in 100 μl cell culture medium (final concentration 0.2% DMSO). Cells were also treated with Dasatinib as a positive control. The cells were incubated at 37° C., 5% CO2 for three days. ATPlite Buffer (Perkin Elmer #6016739) and substrate were equilibrated to room temperature, and enzyme/substrate Recombinant Firefly Luciferase/D-Luciferin was reconstituted. The cell plates were equilibrated to room temperature for 30 minutes, then lysed by addition of 25 μL per well of the ATPlite Reagent. The plate was mixed for 5 minutes on a plate shaker to lyse the cells. The plates were read on a Tecan Safire using Luminescence protocol modified to read 0.1s per well. The luminescence reading assesses the ATP content, which correlates directly with cell number such that the reading as a function of compound concentration is used to determine the IC50 value.
Plasmids P75635 and P75565 were engineered for mammalian cell expression. In both plasmids, full-length human v-kit Hardy-Zuckerman 4 feline sarcoma viral oncogene homolog gene (NCBI accession NM_000222, KIT, residues M1-V976) was subcloned into the pCI-Neo vector (Promega E1841). Plasmid P75635 contains the mutation of residue Aspartic acid 816 to Valine. Plasmid P75565 contains the double mutation of residues Valine 560 to Glycine and Aspartic acid 816 to Valine. The pCI-neo Mammalian Expression Vector carries the human cytomegalovirus (CMV) immediate-early enhancer/promoter region to promote constitutive expression of KIT and contains the neomycin phosphotransferase gene, a selectable marker.
It is understood that the results of these assays may vary as assay conditions are varied. Inhibition levels determined under the conditions described herein represent a relative activity for the compounds tested under the specific conditions employed. The cell based assays are likely to show variability due to the complexity of the system and the sensitivity thereof to any changes in the assay conditions. […] In some instances, the compounds were not tested in all of the assays, or assay results were not valid.

c-kit mutant D816V = c-kit mutant D816V (Homo sapiens (Human), UniProt P10721, D816V/DEL694-753); experiment: c-Kit mutant D816V biochemical assay (AlphaScreen kinase activity)
Method: The c-kit mutant D816V (or kinase domain thereof) is an active kinase in AlphaScreen. IC50 values are determined with respect to inhibition of c-Kit mutant D816V kinase activity, where inhibition of phosphorylation of a peptide substrate is measured as a function of compound concentration. Compounds to be tested were dissolved in DMSO to a concentration of 30 mM. These were diluted […] of DMSO (4 mM) and 1 μl was added to an assay plate. These were then serially diluted 1:3 (50 μl to […] DMSO) for a total of 8 points. Plates were prepared such that each kinase reaction is […] in 1× kinase buffer (25 mM HEPES, pH 7.2, 8 mM MgCl2, 2 mM MnCl2, 50 mM NaCl, 0.01% Brij, 1 mM DTT, 0.01% BSA), 5% DMSO and 10 μM ATP. Substrate was 30 nM biotin-(E4Y)10 (EMD Millipore, Cat#12-440). C-kit mutant D816V kinase was at 0.75 ng per sample. After incubation of the kinase reaction for 30 minutes at room temperature, 5 μl of donor beads (Streptavidin coated beads (Perkin Elmer Life Science) final concentration 7.5 μg/ml) in stop buffer (25 mM Hepes pH 7.5, 100 mM EDTA, 0.01% BSA) was added, the sample was mixed and incubated for 30 minutes at room temperature before adding […] of acceptor beads (PY30 coated beads (Perkin Elmer Life Science) final concentration 7.5 μg/ml) in stop buffer. The samples were incubated for 60 minutes at room temperature and the signal per well was read on EnVision reader. Phosphorylated substrate results in binding of the PY30 antibody and association of the donor and acceptor beads such that signal correlates with kinase activity. The signal vs. compound concentration was used to determine the IC50.
Recombinant c-kit mutant D816V (residues 551-934, kinase insertion domain residues 694-753 deleted) with a 6×-histidine N-terminal tag (SEQ ID NO: 3) was expressed in E. coli Arctic Express (DE3) RIL (Stratagene). Cells were grown in Terrific Broth (TB) media to an OD600 of 0.6 at 37° C. at which temperature was reduced to 10° C., protein was induced with 1.0 mM IPTG for 18 hours and harvested by centrifugation at 8000×g for 30 minutes. Cells were re-suspended in 0.1M KPO4 pH 8.0, 250 mM NaCl, 10% Glycerol, 0.75% NP-40, 25 mM Imidazole, 5 mM BME with 0.2 mg/ml Lysosyme, 2.0 mM PMSF, 25 μg/ml DNAse I, incubated in ice for 30 minutes and lyzed with a cell disruptor (MicroFluidics). The lysate was clarified by centrifugation at 30,000×g for 2 hours. The protein was captured with Talon resin (Clontech). Contaminating proteins were washed off with 25 mM Tris-HCl pH 8.3, 250 mM NaCl, 15% Glycerol, 1% Triton X-100, and protein eluted using 100 mM EDTA. The protein was further purified using Gel Filtration column 26/600 Superdex 300 (GE) in 50 mM Tris-HCl , pH 8.0, 250 mM NaCl, 15% Glycerol, 5 mM BME. The protein was aliquoted and flash-frozen in liquid Nitrogen.

c-Kit kinase = c-Kit kinase (Homo sapiens (Human), UniProt P10721); experiment: c-Kit biochemical assay (AlphaScreen kinase activity)
Method: Assays for biochemical cell-based activity of c-kit kinase are known in the art, for example, as described in U.S. Pat. Nos. 7,498,342 and 7,846,941, the disclosures of which are hereby incorporated by reference as it relates to such assays. The c-kit (or kinase domain thereof) is an active kinase in AlphaScreen. IC50 values are determined with respect to inhibition of c-Kit kinase activity, where inhibition of phosphorylation of a peptide substrate is measured as a function of compound concentration. Compounds to be tested were dissolved in DMSO to a concentration of 30 mM. These were diluted 30 μl into 130 μl of DMSO (4 mM) and 1 μl was added to an assay plate. These were then serially diluted 1:3 (50 μl to 100 μl DMSO) for a total of 8 points. Plates were prepared such that each kinase reaction is 30 μl in 1× kinase buffer (50 mM HEPES, pH 7.2, 5 mM MgCl2, 5 mM MnCl2, 0.01% NP-40, 0.2% BSA), 5% DMSO and 10 μM ATP. Substrate was 100 nM biotin-(E4Y)3 (Open Source Biotech, Inc.). C-kit kinase was at 0.1 ng per sample. After incubation of the kinase reaction for 1 hour at room temperature, 5 μl of donor beads (Streptavidin coated beads (Perkin Elmer Life Science) final concentration 1 μg/ml) in stop buffer (50 mM EDTA in 1× kinase buffer) was added, the sample was mixed and incubated for 30 minutes at room temperature before adding […] of acceptor beads (PY30 coated beads (Perkin Elmer Life Science) final concentration 1 μg/ml) in stop buffer. The samples were incubated for 60 minutes at room temperature and the signal per well was read on AlphaQuest reader. Phosphorylated substrate results in binding of the PY30 antibody and association of the donor and acceptor beads such that signal correlates with kinase activity. The signal vs. compound concentration was used to determine the IC50.
Compounds were also tested using a similar assay with a 10-fold higher ATP concentration. For these samples, compounds to be tested were dissolved in DMSO to a concentration of 30 mM. These were diluted 30 μl into 130 μl of DMSO (4 mM) and 1 μl was added to an assay plate. These were then serially diluted 1:3 (50 μl to 100 μl DMSO) for a total of 8 points. Plates were prepared such that each kinase reaction is 30 μl in 1× kinase buffer (25 mM HEPES, pH 7.5, 2 mM MgCl2, 2 mM MnCl2, 0.01% […], 1 mM DTT, and 0.001% BSA), 5% DMSO and 100 μM ATP. Substrate was 30 nM biotin-(E4Y)10 (Upstate Biotech, Cat#12-440). C-kit kinase was at 1 ng per sample. After incubation of the kinase reaction for 1 hour at room temperature, 5 μl of donor beads (Streptavidin coated beads (Perkin Elmer Life Science) final concentration 10 μg/ml) in stop buffer (25 mM HEPES pH 7.5, 100 mM EDTA, 0.3% BSA) was added, the sample was mixed and incubated for 30 minutes at room temperature before adding 5 μl of acceptor beads (PY30 coated beads (Perkin Elmer Life Science) final concentration 10 μg/ml) in stop buffer. The samples were incubated for 60 minutes at room temperature and the signal per well was read on AlphaQuest or Envision reader (Perkin Elmer Life Science). Phosphorylated substrate results in binding of the PY30 antibody and association of the donor and acceptor beads such that signal correlates with kinase activity. The signal vs. compound concentration was used to determine the IC50.
The c-kit enzyme used in the above assay was either obtained from Cell Signaling Technology (Cat. #7754) or was prepared as follows: A plasmid encoding kit (DNA and encoded protein sequences shown below) was engineered using common polymerase chain reaction (PCR) methods. Complementary DNA cloned from various human tissues were purchased from Invitrogen, and these were used as substrates in the PCR reactions. Specific custom synthetic oligonucleotide primers were designed to initiate the PCR product, and also to provide the appropriate restriction enzyme cleavage sites for ligation with the plasmids. […]

c-kit mutant D816V, sequence (P10721 other isoform, or with tags, fused parts or gaps D816V/del 694-753): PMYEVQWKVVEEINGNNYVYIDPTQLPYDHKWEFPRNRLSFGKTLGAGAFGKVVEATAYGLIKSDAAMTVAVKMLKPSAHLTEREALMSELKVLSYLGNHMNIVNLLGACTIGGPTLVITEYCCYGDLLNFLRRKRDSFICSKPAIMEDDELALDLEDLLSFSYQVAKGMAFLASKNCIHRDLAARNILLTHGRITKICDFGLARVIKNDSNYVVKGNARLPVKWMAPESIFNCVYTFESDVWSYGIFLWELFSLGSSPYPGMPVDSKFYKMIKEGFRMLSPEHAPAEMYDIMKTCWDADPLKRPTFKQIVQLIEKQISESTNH
c-Kit kinase, sequence (P10721 26-976): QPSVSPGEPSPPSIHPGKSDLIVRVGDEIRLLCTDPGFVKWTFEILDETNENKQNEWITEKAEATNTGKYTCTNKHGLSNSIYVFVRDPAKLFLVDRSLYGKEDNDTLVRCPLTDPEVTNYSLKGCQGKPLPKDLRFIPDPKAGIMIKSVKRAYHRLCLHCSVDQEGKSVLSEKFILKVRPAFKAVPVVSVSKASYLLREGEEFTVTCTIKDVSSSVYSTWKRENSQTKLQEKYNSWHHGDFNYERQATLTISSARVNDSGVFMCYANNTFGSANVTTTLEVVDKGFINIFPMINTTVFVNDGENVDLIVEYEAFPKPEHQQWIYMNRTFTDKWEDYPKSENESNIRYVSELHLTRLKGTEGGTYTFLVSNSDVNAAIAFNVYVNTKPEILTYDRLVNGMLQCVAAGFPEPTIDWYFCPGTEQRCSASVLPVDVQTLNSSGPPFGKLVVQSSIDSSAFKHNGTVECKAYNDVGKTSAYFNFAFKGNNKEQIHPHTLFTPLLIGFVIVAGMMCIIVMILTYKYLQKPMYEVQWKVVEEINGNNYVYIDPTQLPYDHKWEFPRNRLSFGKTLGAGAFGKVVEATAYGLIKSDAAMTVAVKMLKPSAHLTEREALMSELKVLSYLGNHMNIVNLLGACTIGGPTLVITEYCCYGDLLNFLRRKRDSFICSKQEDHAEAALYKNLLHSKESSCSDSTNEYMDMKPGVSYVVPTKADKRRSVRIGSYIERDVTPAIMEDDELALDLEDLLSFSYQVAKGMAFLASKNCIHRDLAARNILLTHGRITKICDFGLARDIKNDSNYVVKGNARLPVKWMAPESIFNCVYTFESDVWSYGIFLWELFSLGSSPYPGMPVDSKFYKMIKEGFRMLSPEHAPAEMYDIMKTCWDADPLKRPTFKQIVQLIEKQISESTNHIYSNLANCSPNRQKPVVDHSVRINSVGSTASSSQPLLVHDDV

| SMILES | IC50 [1] | IC50 (c-kit mutant D816V) | IC50 (c-Kit kinase) |
| --- | --- | --- | --- |
| COc1ccc(-c2[nH]c(C3CCN(c4ncnc5[nH]c(-c6ccc(F)cc6)cc45)CC3)nc2C(F)(F)F)cc1 [P-3147, 6-(4-fluorophenyl)-4-[4-[5-(4-methoxyphenyl)-4-(trifluoromethyl)-1H-imidazol-2-yl]-1-piperidyl]-7H-pyrrolo[2,3-d]pyrimidine] | < 10000 nM | 0.0001 to 1 µM |  |
| Cc1cc2c(N3CCC(C)(c4nc(C)c(-c5ccc(Cl)cc5)[nH]4)CC3)ncnc2[nH]1 [P-3174, 4-[4-[5-(4-chlorophenyl)-4-methyl-1H-imidazol-2-yl]-4-methyl-1-piperidyl]-6-methyl-7H-pyrrolo[2,3-d]pyrimidine] | < 10000 nM | 0.0001 to 1 µM |  |
| COc1cc(-c2[nH]c(C3CCN(c4ncnc5[nH]c(-c6ccc(F)cc6)cc45)CC3)nc2C)ccc1C [P-3103, 6-(4-fluorophenyl)-4-[4-[5-(3-methoxy-4-methyl-phenyl)-4-methyl-1H-imidazol-2-yl]-1-piperidyl]-7H-pyrrolo[2,3-d]pyrimidine] |  | 0.0001 to 1 µM | 1 to 10 µM |
| Cc1[nH]c(C2CCN(c3ncnc4[nH]c(-c5ccncc5)cc34)CC2)nc1-c1ccccc1 [P-3001, 4-[4-(5-methyl-4-phenyl-1H-imidazol-2-yl)-1-piperidyl]-6-(4-pyridyl)-7H-pyrrolo[2,3-d]pyrimidine] | < 10000 nM |  | 0.0001 to 1 µM |
| Cc1nc(C2CCN(c3ncnc4[nH]c(-c5cccc(Cl)c5)cc34)CC2)[nH]c1-c1ccccc1 [P-3082, 6-(3-chlorophenyl)-4-[4-(4-methyl-5-phenyl-1H-imidazol-2-yl)-1-piperidyl]-7H-pyrrolo[2,3-d]pyrimidine] | < 10000 nM | 0.0001 to 1 µM |  |

Source: patent publication US9771369B2, “Compounds and methods for kinase modulation, and indications therefor” (Plexxikon Inc., priority 2014, dated 2017)
